Activity calls are given as the source filed them.

Our source for the EC50, IC50 and AC50 values is ChEMBL document CHEMBL1201862, “PubChem BioAssay data set” (2004).

For assay [1], the target named is T1, Heat shock factor protein 1 (Mus musculus, UniProt P38532).
T1 sequence (P38532 whole entry): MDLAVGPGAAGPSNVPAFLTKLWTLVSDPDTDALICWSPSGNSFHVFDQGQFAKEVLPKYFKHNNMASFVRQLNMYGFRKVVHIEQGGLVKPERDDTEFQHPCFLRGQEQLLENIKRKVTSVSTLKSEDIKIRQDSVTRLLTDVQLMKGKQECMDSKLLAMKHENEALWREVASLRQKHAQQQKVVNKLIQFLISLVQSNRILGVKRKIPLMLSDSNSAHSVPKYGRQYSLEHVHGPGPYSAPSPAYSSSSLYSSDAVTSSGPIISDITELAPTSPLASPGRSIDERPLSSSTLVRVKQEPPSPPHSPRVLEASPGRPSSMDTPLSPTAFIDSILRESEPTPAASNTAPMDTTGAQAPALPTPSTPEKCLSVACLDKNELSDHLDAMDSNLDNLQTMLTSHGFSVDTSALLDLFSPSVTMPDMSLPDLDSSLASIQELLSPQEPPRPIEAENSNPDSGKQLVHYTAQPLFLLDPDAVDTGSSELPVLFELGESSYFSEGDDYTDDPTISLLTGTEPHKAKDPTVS
The assay is described as follows: enhancement of HSF1-driven luciferase signal – cell-based, NIH3T3, luminescence, dose retest, confirmation (AID 435004).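 Note: stress induced by proteasome inhibitor MG132 added 30 min after compound; luciferase reporter driven by HSF1 response element in NIH3T3 cells; actives raise luminescence as potentiators of the MG132 stress response.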 Format: functional.

For assay [2], the target named is T2, Fatty acid synthase (Homo sapiens, UniProt P49327). The experiment in a line: inhibition of human FAS-TE enzyme activity – biochemical, kinetic fluorescence intensity, dose response (AID 624326).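 Note: rate of fluorescence rise from hydrolysis of a fluorogenic O-methyl fluorescein ester substrate.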 Format: functional.
T2 sequence (P49327 whole entry): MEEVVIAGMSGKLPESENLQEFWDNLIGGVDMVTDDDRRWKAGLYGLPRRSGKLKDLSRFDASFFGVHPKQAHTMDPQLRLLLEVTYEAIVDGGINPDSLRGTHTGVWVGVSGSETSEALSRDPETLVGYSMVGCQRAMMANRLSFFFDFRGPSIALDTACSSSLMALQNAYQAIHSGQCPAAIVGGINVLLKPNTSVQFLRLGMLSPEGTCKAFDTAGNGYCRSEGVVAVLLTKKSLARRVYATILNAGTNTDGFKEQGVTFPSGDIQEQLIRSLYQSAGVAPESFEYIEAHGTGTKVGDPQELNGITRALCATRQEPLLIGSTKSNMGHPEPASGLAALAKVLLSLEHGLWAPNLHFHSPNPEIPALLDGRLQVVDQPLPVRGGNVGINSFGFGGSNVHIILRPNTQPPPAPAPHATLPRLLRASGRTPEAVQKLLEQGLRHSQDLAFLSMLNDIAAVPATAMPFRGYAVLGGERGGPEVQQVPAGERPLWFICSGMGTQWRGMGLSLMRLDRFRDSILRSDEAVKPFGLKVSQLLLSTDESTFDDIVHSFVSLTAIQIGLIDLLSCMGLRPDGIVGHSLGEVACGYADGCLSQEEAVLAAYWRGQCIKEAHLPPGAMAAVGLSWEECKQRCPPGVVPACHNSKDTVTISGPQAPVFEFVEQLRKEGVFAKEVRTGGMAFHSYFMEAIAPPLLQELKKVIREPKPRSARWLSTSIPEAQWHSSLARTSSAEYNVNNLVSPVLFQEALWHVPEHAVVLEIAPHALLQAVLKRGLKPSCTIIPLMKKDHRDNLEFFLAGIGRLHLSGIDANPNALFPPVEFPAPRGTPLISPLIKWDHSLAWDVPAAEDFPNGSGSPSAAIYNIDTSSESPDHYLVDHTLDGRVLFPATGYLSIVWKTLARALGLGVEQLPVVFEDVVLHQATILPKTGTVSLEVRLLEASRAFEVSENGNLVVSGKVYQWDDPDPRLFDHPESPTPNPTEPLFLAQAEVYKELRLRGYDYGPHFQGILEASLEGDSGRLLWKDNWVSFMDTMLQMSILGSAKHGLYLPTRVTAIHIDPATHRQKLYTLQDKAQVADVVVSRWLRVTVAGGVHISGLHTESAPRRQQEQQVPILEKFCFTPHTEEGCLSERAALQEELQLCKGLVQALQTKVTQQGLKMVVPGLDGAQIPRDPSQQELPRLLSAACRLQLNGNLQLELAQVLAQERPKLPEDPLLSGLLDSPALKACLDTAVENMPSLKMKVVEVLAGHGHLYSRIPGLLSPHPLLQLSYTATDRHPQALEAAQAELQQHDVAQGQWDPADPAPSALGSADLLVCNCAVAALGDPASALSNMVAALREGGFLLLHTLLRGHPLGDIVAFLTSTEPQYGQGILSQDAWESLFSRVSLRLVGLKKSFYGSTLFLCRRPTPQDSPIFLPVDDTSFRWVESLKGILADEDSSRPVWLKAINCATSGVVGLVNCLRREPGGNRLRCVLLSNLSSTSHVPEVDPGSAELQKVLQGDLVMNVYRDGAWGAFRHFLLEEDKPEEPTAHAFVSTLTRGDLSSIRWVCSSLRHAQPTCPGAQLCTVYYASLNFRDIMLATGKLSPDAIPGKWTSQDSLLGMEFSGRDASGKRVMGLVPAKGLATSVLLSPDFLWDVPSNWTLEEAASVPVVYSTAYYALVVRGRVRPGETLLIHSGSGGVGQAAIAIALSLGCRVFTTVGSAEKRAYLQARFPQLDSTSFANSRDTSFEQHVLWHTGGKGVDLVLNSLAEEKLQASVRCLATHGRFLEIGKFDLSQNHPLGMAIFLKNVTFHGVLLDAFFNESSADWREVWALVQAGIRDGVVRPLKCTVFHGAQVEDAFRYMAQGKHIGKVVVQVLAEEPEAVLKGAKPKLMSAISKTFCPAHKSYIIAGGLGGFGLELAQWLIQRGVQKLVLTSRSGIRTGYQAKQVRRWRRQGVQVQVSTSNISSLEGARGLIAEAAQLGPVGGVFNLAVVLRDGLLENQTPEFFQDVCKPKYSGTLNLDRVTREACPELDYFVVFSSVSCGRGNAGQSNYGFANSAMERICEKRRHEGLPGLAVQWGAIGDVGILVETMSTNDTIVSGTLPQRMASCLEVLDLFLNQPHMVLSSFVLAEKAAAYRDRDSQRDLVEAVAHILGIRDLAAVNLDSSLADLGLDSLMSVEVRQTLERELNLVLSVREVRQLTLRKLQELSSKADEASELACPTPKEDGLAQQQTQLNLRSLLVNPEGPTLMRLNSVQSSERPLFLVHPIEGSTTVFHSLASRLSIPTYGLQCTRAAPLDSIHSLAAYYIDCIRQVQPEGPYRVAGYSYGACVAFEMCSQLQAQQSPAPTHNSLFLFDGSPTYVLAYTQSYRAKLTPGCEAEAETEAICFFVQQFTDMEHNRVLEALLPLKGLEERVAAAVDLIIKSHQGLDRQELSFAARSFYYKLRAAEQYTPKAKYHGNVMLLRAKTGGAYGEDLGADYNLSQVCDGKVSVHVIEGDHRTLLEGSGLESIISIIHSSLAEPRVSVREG
The target of assay [3] is T2, Fatty acid synthase. The assay is described as follows: inhibition of human FAS-TE enzyme activity – biochemical, endpoint fluorescence intensity, uHTS hits, dose response (AID 624327).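 Note: fluorescence from hydrolysis of an O-methyl fluorescein acyl ester substrate by the enzyme.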 Type of assay: functional.
Assay [4] concerns the target T3, Polyadenylate-binding protein 1 (Homo sapiens, UniProt P11940). The assay is described as follows: MLLE binding blockers, Cy5 peptide tracer – biochemical, fluorescence polarization, Cy5-PAM2 peptide, secondary, miRNA deadenylation inhibitor project, dose response (AID 602260). Format: functional. The conditions noted are these: read-out: IC50_Mean. (Polarisation of emitted light reports the rotation of a fluorescent probe.)

The target in assay [5] is T3, Polyadenylate-binding protein 1. The experiment in a line: MLLE domain peptide-binding blockers, IC50 – biochemical, fluorescence polarization, FITC-PAM2 peptide, dose response (AID 602259). Format: functional. The conditions noted are these: read-out: IC50_Mean.
In assay [6] the test system is Streptococcus sp. 'group A'. The experiment in a line: Streptococcus pyogenes SK(-)GAS viability under kanamycin – luminescence, BacTiterGlo, confirmation, counter-screen for streptokinase expression inhibitor project, dose response (AID 1900). Format: functional, organism-based. (A counterscreen serves to expose hits that act by an unwanted route or on another target.)

Another assay deals with Streptococcus. The assay is described as follows: GAS UMAA2166 growth inhibition – luminescence, BacTiterGlo, counter-screen for streptokinase expression inhibitor project, dose response (AID 1915).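 Note: potency for reduction of bacterial viability or growth.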 Type of assay: functional, organism-based.
For the next assay, the target named is T4, Aminopeptidase N (Plasmodium falciparum FcB1/Columbia, UniProt O96935).
T4 sequence (O96935 whole entry): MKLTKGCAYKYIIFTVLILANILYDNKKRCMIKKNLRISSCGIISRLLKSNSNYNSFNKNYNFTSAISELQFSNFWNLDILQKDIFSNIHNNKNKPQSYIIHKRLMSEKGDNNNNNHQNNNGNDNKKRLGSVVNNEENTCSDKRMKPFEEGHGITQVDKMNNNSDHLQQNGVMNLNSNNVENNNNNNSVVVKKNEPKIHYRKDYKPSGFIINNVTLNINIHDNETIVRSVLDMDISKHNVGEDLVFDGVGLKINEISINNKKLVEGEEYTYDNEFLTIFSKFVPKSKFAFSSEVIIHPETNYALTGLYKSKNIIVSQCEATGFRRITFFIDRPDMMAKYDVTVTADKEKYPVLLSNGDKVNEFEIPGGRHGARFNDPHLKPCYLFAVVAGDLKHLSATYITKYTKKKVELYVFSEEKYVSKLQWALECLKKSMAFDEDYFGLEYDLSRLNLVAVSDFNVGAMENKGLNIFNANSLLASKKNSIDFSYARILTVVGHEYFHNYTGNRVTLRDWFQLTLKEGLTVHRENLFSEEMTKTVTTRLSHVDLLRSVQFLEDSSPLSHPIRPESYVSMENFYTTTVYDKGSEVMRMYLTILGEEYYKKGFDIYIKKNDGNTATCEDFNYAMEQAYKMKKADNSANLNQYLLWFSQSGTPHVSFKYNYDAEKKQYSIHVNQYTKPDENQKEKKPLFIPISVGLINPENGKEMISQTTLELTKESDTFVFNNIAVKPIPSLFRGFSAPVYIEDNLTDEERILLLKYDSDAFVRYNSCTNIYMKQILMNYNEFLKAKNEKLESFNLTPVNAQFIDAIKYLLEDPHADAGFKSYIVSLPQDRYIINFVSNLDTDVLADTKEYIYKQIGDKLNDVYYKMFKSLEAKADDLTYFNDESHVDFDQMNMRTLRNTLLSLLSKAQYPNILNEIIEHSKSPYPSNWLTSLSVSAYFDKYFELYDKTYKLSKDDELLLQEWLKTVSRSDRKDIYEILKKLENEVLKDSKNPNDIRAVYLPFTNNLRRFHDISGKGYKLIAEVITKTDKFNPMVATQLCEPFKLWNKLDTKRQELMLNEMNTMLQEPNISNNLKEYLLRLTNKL
The experiment in a line: malaria alanyl aminopeptidase activity blockers – biochemical, fluorogenic H-Leu-NHMec substrate, 1536-well (AID 1445). The arrangement: species or system Plasmodium falciparum 3D7, 3D7.

A short description of assay [7]: Luminescence Cell-Based Dose Retest to Confirm Inhibitors of Cancer Stem Cells. [Related pubchem assays (depositor defined):AID2717, AID2721]. Format: functional. The conditions noted are these: Homo sapiens.
The test system of the next assay is INS1. The assay is described as follows: INS-1E survival protection against cytokine death – cell-based, luminescence, retest, dose response (AID 449756).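 Note: cell death triggered by IL-1 beta plus TNF-alpha plus IFN-gamma mixture; protective hits raise ATP signal compared with cytokine alone wells.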 Type of assay: functional. As to conditions: Rattus norvegicus.
Another assay concerns the target T5, Streptokinase A (Streptococcus pyogenes serotype M1, UniProt P10520).
T5 sequence (P10520 whole entry): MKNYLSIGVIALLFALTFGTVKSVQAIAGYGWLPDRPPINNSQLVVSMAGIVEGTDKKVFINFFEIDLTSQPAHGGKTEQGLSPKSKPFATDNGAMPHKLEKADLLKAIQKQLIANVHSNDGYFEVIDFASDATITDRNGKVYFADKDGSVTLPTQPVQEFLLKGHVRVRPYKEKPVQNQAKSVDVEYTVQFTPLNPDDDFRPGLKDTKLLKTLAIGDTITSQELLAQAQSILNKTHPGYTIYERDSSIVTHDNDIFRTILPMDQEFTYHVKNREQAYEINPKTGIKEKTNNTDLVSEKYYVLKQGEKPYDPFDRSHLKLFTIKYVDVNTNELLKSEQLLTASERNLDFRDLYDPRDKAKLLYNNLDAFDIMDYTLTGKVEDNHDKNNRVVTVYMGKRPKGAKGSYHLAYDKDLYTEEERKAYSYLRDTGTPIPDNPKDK
The assay is described as follows: viability-normalized secreted streptokinase activity reduction – plasminogen activation absorbance, OD405, dose response (AID 1914).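 Note: secreted streptokinase activity via plasminogen activation per viability signal from cell pellet.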 Type of assay: functional, Streptococcus pyogenes M1 GAS.

T3 sequence (P11940 whole entry): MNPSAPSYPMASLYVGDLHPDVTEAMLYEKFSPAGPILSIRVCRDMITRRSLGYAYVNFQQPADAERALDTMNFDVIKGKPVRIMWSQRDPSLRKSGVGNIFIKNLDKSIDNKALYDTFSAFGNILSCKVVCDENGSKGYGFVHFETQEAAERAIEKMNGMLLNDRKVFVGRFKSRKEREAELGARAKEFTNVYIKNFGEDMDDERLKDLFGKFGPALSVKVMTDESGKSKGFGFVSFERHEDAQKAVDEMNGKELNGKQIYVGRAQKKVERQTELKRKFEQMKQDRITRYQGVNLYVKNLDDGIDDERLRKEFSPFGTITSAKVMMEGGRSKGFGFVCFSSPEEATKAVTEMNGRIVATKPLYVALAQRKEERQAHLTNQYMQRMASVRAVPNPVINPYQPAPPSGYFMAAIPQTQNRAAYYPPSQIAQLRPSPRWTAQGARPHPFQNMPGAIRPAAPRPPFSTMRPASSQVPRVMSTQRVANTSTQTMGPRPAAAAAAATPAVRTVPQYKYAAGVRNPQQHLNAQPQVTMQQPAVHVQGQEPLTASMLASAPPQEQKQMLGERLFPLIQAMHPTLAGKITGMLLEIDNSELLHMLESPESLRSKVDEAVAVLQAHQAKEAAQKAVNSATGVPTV

For the molecule `CC1(C)c2cc(O)ccc2OC1N1CCOCC1` (configuration not stated), the EC50 in [1] is > 260 µM (inactive).

In the case of `O=C(COC(=O)c1cc([N+](=O)[O-])ccc1N1CCOCC1)NCCc1ccccc1`, the IC50 on Fatty acid synthase [2] is 2.6 µM (active); at Fatty acid synthase [3], 1.98 µM (active).

As for `CC1=CC(=O)C=CC1=Nc1ccc(N(C)C)cc1`, the figures for the IC50 in assay [4] and in assay [5] were 61.6 µM (inactive) and > 66 µM (inactive), respectively.

Consider `CCCOc1ccc(C(=O)NNC(=S)NC(=O)c2cc(-c3ccc(Cl)cc3)nc3ccccc23)cc1`, for which the EC50 (in assay [6]; with Streptococcus) was < 0.06 µM (active) throughout. Further, the IC50 in [4] and in [5] was > 66 µM (inactive) each time.

As for `CCN(CCCNC(=O)CCCN1C(=O)COc2ccc(C)cc21)c1cccc(C)c1`, in assay [1], the EC50 was > 260 µM (inactive).

Consider `Cc1cc(O)nc(-n2ncc(C#N)c2N)n1`, for which the EC50 in assay [1] is > 260 µM (inactive).

Regarding `CN(C)CCc1nc2ccccc2c(=O)n1-c1ccccc1`, the EC50 in assay [1] is > 260 µM (inactive).

In the case of `N#Cc1cc(Oc2ccc(Cl)cc2)c(N2CCOCC2)cc1C#N`, the IC50 on Fatty acid synthase [2] was 4.83 µM (active); on Fatty acid synthase [3] it was 4.35 µM (active).

`O=C(O)/C(=C\c1ccc(-c2ccc(F)cc2)o1)c1ccccc1`: the IC50 at Aminopeptidase N is 51.4 µM (active).

Turning to `CCOC(=O)N1CCN(C(=O)C(=O)NNC(=O)COc2ccc(Cl)cc2)CC1`, on Aminopeptidase N, the IC50 is 106 µM (active).

As for `O=S(=O)([N-]c1nc2ccccc2nc1-[n+]1ccc(Cc2ccccc2)cc1)c1ccc(Br)s1`, the results for the AC50 (in assay [7]; in the assay on INS1) were 6.23 µM (active) and 6.81 µM (active), respectively. Further, the IC50 is > 66 µM (inactive) in [4] and 52.3 µM (inactive) in assay [5].

Consider `O=C(/C=C/c1cccc([N+](=O)[O-])c1)NC(=S)Nc1ccc(CN2CCOCC2)cc1`, for which, in assay [1], the EC50 is 14.6 µM (active). In addition, the IC50 in assay [4] and in [5] was > 66 µM (inactive) throughout.

As for `COC(=O)Cn1c(=O)c2c(nc3n2CC(C)CN3CCc2ccccc2)n(C)c1=O` (configuration not stated), the EC50 in assay [1] was > 260 µM (inactive).

With `COc1cc2nc(CSc3nc(-c4ccc(F)cc4)cs3)nc(O)c2cc1OC`, the EC50 in assay [1] was > 260 µM (inactive); in assay [6] it was > 150 µM (not active); in the assay with Streptococcus it was > 150 µM (not active); at Streptokinase A, > 150 µM (not active).

For the molecule `COc1cccc(-c2nc(=S)c3c(n2CCCO)CCCC3)c1`, the IC50 in assay [4] and in [5] was > 66 µM (inactive) in each case.

On to `O=[N+]([O-])c1cccc(CN2CC=C(c3ccc(F)cc3)CC2)c1`, for which the IC50 on Fatty acid synthase [2] was 9.86 µM (active); at Fatty acid synthase [3], 11.4 µM (active).

On to `O=C(NCc1ccc2c(c1)OCO2)C1CCCN(S(=O)(=O)c2cccnc2)C1` (configuration not stated), for which the IC50 on Aminopeptidase N was 70.7 µM (active).

As to `Cc1ccc(CNC(=O)CSc2nc3ccsc3c(=O)n2NC(=O)c2ccccc2)cc1`, on Aminopeptidase N, the IC50 is 11.1 µM (active).

In the case of `O=C(OCC(=O)N1CCN(c2ccccc2)CC1)c1cccc([N+](=O)[O-])c1`, the results for the IC50 at Fatty acid synthase [2] and at Fatty acid synthase [3] were 11.9 µM (active) and 7.7 µM (active), respectively.

As to `COc1cc(OC)c(OC)cc1CN(C)CCc1ccccn1`, the EC50 in [1] is > 260 µM (inactive).

Turning to `COc1ccc([N+](=O)[O-])cc1C(=O)NCCOc1ccc(Cl)cc1`, the IC50 on Fatty acid synthase [2] was 7.34 µM (active); at Fatty acid synthase [3], 5.95 µM (active).

On to `COc1ccc(CN2CC(=O)N3[C@H]4c5ccccc5OC[C@@H]4[C@H](c4ccccc4)[C@]3(C)C2=O)cc1`, for which the IC50 in assay [4] and in assay [5] was > 66 µM (inactive) each time.

For the molecule `Cc1ccc(NC(=O)c2cnn(-c3ccccc3)c2C)cc1`, in assay [1], the EC50 is > 260 µM (inconclusive).

For orientation: EC50 means the concentration giving half of the maximal effect. For orientation: AC50 means the concentration giving half of the maximal activity seen.
